Measurements taken from patent US4705799A, “Aminomethyl oxooxazolidinyl benzenes useful as antibacterial agents” (E. I. Du Pont de Nemours and Company, priority 1985, dated 1987).
Values after ≈ are worked out from the molar mass of the structure shown.

Experiments:
[1] = system: Staphylococcus epidermidis; assay: In vitro broth dilution minimal inhibitory concentration (standard microdilution method); type: cell-based; settings: 24 h, Mueller-Hinton broth, 24-hour, read-out: Microdilution Broth MIC
[2] = system: Escherichia coli; assay: as above; type: cell-based; settings: Escherichia coli; Mueller-Hinton broth; 24-hour; read-out: Microdilution Broth MIC
[3] = system: Escherichia coli; assay: In vivo efficacy of orally administered compounds in mouse intraperitoneal infections; settings: 168 h; mouse i.p. Escherichia coli infection; oral; dosed at infection and 4 h post-infection; 7 days; read-out: ED50 (50 percent effective dose)
[4] = system: Staphylococcus aureus; assay: as above; settings: Staphylococcus aureus, po, 168 h, mouse i.p. Staphylococcus aureus infection; oral; dosed at infection and 4 h post-infection; 7 days; read-out: ED50 (50 percent effective dose)
[5] = system: Escherichia coli; assay: In vivo efficacy of compounds administered subcutaneously in mouse intraperitoneal infections; settings: sc, 168 h; mouse i.p. Escherichia coli infection; subcutaneous; dosed at infection and 4 h post-infection; 7 days; read-out: ED50 (50 percent effective dose)
[6] = system: Staphylococcus aureus; assay: as above; settings: sc, 168 h; mouse i.p. Staphylococcus aureus infection; subcutaneous; dosed at infection and 4 h post-infection; 7 days; read-out: ED50 (50 percent effective dose)
[7] = Water solubility (observation); type: physicochemical

Row | Compound | MIC [1] | MIC [2] | ED50 [3] | ED50 [4] | ED50 [5] | ED50 [6] | water solubility [7]
1 | CC(=O)NCC1CN(c2ccc(C(C)=NNC(C)=O)cc2)C(=O)O1 (single isomer, unassigned) [Example 132, (l)-N-[3-[4-[1-(Acetylhydrazono)ethyl]phenyl]-2-oxo-5-oxazolidinylmethyl]acetamide] | 6.2 µg/mL (≈ 18.7 µM) | > 200 µg/mL | 24.7 mg/kg | < 4.4 mg/kg | > 120 mg/kg | 6.9 mg/kg | 
2 | CC(=O)NCC1CN(c2ccc(Br)cc2)C(=O)O1 (centres unmarked) [Example 86] | 6.25 µg/mL (≈ 20 µM) | > 200 µg/mL | > 40 mg/kg | 6.9 mg/kg | > 40 mg/kg | 4.7 mg/kg | 
3 | CSCC(=O)c1ccc(N2CC(CNC(C)=O)OC2=O)cc1 (single isomer, unassigned) [Example 161, (l)-N-[3-[4-(Methylthioacetyl)phenyl]-2-oxo-5-oxazolidinylmethyl]acetamide] | 1.6 µg/mL (≈ 4.96 µM) | > 200 µg/mL | > 120 mg/kg | 10.4 mg/kg | > 120 mg/kg | 5.4 mg/kg | 
4 | CC(=O)NCC1CN(c2ccc(C(C)=O)c(C)c2)C(=O)O1 (centres unmarked) [Example 142] | 1 µg/mL (≈ 3.44 µM) | > 128 µg/mL | 52.1 mg/kg | 1.8 mg/kg | 52.1 mg/kg | 1.8 mg/kg | 
5 | CC(=O)c1ccc(N2CC(CNC(=O)CCCl)OC2=O)cc1 (centres unmarked) [Example 95] | 12.5 µg/mL (≈ 38.5 µM) | > 200 µg/mL | > 120 mg/kg | 10.9 mg/kg | 60.7 mg/kg | 7.7 mg/kg | 
6 | CC(=O)NCC1CN(c2ccc([S+](C)[O-])cc2)C(=O)O1 (single isomer, unassigned) [Example 120, (l)-N-[3-[4-(Methylsulfinyl)phenyl]-2-oxooxazolidin-5-ylmethyl]acetamide] | 10 µg/mL (≈ 33.7 µM) | > 200 µg/mL | 11.1 mg/kg | 3.3 mg/kg | 6.1 mg/kg | 2.8 mg/kg | 
7 | CC(=O)c1ccc(N2CC(CNC(=O)C(Cl)Cl)OC2=O)cc1 (centres unmarked) [Example 172] | 4 µg/mL (≈ 11.6 µM) | > 128 µg/mL | > 120 mg/kg | 10.2 mg/kg | > 120 mg/kg | 13.6 mg/kg | 
8 | CC(=O)NCC1CN(c2ccc(C(C)C)cc2)C(=O)O1 (centres unmarked) [Example 38] | 9.4 µg/mL (≈ 34 µM) | > 200 µg/mL | > 120 mg/kg | 9.1 mg/kg | 60.4 mg/kg | 4.8 mg/kg | 
9 | NS(=O)(=O)c1ccc(N2CC(CNC(=O)C(Cl)Cl)OC2=O)cc1 (single isomer, unassigned) [Example 112, (l)-2,2-Dichloro-N-[3-[4-(aminosulfonyl)phenyl]-2-oxooxazolidin-5-ylmethyl]acetamide] | 12.5 µg/mL (≈ 32.7 µM) | 50 µg/mL (≈ 131 µM) | > 360 mg/kg | > 360 mg/kg | 62.7 mg/kg | 14.4 mg/kg | 
10 | CCc1ccc(N2CC(CNC(=O)OC)OC2=O)cc1 (centres unmarked) [Example 83] | 12.5 µg/mL (≈ 44.9 µM) | > 200 µg/mL | > 120 mg/kg | 9.6 mg/kg | > 12 mg/kg | 6.6 mg/kg | 
11 | CC(=O)NCC1CN(c2ccc(C(C)=O)cc2)C(=O)O1 (single isomer, unassigned) [Example 129, (l)-N-[3-(4-Acetylphenyl)-2-oxo-5-oxazolidinylmethyl)acetamide] | 0.4 µg/mL (≈ 1.45 µM) | 12.5 µg/mL (≈ 45.2 µM) | 13.6 mg/kg | 0.7 mg/kg | 14 mg/kg | 0.5 mg/kg | 
12 | CC(=O)NCC1CN(c2ccc(C(C)O)cc2)C(=O)O1 (single isomer, unassigned) [Example 130, (l)-N-[3-[4-(1-Hydroxyethyl)phenyl]-2-oxo-5-oxazolidinylmethyl]acetamide] | 3.1 µg/mL (≈ 11.1 µM) | 50 µg/mL (≈ 180 µM) | 17.4 mg/kg | 2.1 mg/kg | 26.3 mg/kg | < 1.3 mg/kg | 
13 | CC(=O)NCC1CN(c2ccc(S(N)(=O)=O)cc2)C(=O)O1 (single isomer, unassigned) [Example 113, (l)-N-[3-[4-(Aminosulfonyl)phenyl]-2-oxooxazolidin-5-ylmethyl]acetamide] | 25 µg/mL (≈ 79.8 µM) | 100 µg/mL (≈ 319 µM) | 29.7 mg/kg | 17.2 mg/kg | 11.7 mg/kg | 9.6 mg/kg | 
14 | CCCCc1ccc(N2CC(CNC(C)=O)OC2=O)cc1 (centres unmarked) [Example 81] | 6.2 µg/mL (≈ 21.4 µM) | > 200 µg/mL | > 120 mg/kg | 47.9 mg/kg | > 120 mg/kg | 27.9 mg/kg | 
15 | CS(=O)(=O)c1ccc(N2CC(CNC(=O)CN=[N+]=[N-])OC2=O)cc1 (centres unmarked) [Example 158] | 6.3 µg/mL (≈ 17.8 µM) | 50 µg/mL (≈ 141 µM) | 56.5 mg/kg | 11.4 mg/kg | 25 mg/kg | < 13 mg/kg | 
16 | CC(=O)NCC1CN(c2ccc([N+](=O)[O-])cc2)C(=O)O1 (single isomer, unassigned) [Example 146, (l)-N-[3-(4-Nitrophenyl)-2-oxooxazolidin-5-ylmethyl]acetamide] | 2.4 µg/mL (≈ 8.59 µM) | 200 µg/mL (≈ 716 µM) | 29.8 mg/kg | 2 mg/kg | 40 mg/kg | > 13 mg/kg | 

Row | Compound | MIC [1] | MIC [2] | ED50 [3] | ED50 [4] | ED50 [5] | ED50 [6] | water solubility [7]
17 | CNS(=O)(=O)c1ccc(N2CC(CNC(C)=O)OC2=O)cc1 (centres unmarked) [Example 46] | 12.5 µg/mL (≈ 38.2 µM) | > 200 µg/mL | 62.5 mg/kg | 15.8 mg/kg | 91 mg/kg | > 13 mg/kg | 
18 | CC(=O)NCC1CN(c2ccc(S)cc2)C(=O)O1 (single isomer, unassigned) [Example 153, (l)-N-[3-(4-Mercaptophenyl)-2-oxooxazolidin-5-ylmethyl]acetamide] | > 50 µg/mL | > 50 µg/mL | 17 mg/kg | 5.7 mg/kg | 57.2 mg/kg | < 13 mg/kg | 
19 | CCCC(=O)c1ccc(N2CC(CNC(C)=O)OC2=O)cc1 (stereo not drawn) [Example 138, l-N-[2-oxo-3-[4-(1-oxobutyl)phenyl]-5-oxazolidinylmethyl]acetamide] | 1 µg/mL (≈ 3.29 µM) | > 128 µg/mL | > 120 mg/kg | 9.6 mg/kg | > 120 mg/kg | 5.1 mg/kg | 
20 | CCC(=O)c1ccc(N2CC(CNC(C)=O)OC2=O)cc1 (stereo not drawn) [Example 134, l-N-[2-oxo-3-[4-(1-oxopropyl)phenyl]-5-oxazolidinylmethyl]acetamide] | 0.4 µg/mL (≈ 1.38 µM) | 25 µg/mL (≈ 86.1 µM) | 46.9 mg/kg | < 4.4 mg/kg | 42.1 mg/kg | < 4.4 mg/kg | 
21 | CS(=O)(=O)c1ccc(N2CC(CNC(=O)CCCl)OC2=O)cc1 (centres unmarked) [Example 94] | 18.8 µg/mL (≈ 52.1 µM) | 200 µg/mL (≈ 554 µM) | 76.8 mg/kg | 30.2 mg/kg | 46.7 mg/kg | 18.7 mg/kg | 
22 | CS(=O)(=O)c1ccc(N2CC(CNC(=O)CCl)OC2=O)cc1 (centres unmarked) [Example 67] | 3.2 µg/mL (≈ 9.23 µM) | 2.5 µg/mL (≈ 7.21 µM) | > 120 mg/kg | 42.5 mg/kg | 99 mg/kg | 18.6 mg/kg | 
23 | CCc1ccc(N2CC(CNC(C)=O)OC2=O)cc1 (single isomer, unassigned) [Example 133, (l)-N-[3-(4-Ethylphenyl)-2-oxo-5-oxazolidinylmethyl]acetamide] | 1.6 µg/mL (≈ 6.1 µM) | > 200 µg/mL | 17.9 mg/kg | 3 mg/kg | 15.2 mg/kg | 2.2 mg/kg | 
24 | COC(=O)NCC1CN(c2ccc(C(C)C)cc2)C(=O)O1 (centres unmarked) [Example 39] | 12.5 µg/mL (≈ 42.8 µM) | > 200 µg/mL | > 120 mg/kg | 6.1 mg/kg | > 120 mg/kg | 5.5 mg/kg | 
25 | CC(=O)NCC1CN(c2ccc(NS(C)(=O)=O)cc2)C(=O)O1 (single isomer, unassigned) [Example 151, (l)-N-[3-[4-(Methylsulfonylamino)phenyl]-2-oxooxazolidin-5-ylmethyl]acetamide] | 200 µg/mL (≈ 611 µM) | > 200 µg/mL |  | 62.9 mg/kg |  | 9.7 mg/kg | quite water soluble
26 | CCc1ccc(N2CC(CNC(C)=O)OC2=O)cc1 (centres unmarked) [Example 82] | 3.1 µg/mL (≈ 11.8 µM) | > 200 µg/mL | 65.9 mg/kg | 2.7 mg/kg | 95.1 mg/kg | 2 mg/kg | 
27 | CC(=O)NCC1CN(c2ccc(C(C)=NNC(C)=O)cc2)C(=O)O1 (centres unmarked) [Example 36] | 25 µg/mL (≈ 75.2 µM) | > 200 µg/mL | 47.2 mg/kg | 4.7 mg/kg | > 120 mg/kg | 7.4 mg/kg | 
28 | CC(=O)N(CC1CN(c2ccc(S(C)(=O)=O)cc2)C(=O)O1)C1CCCCC1 (racemic) [Example 124, (dl)-N-cyclohexyl-N-[3-[4-(methylsulfonyl)phenyl]-2-oxooxazolidin-5-ylmethyl]acetamide] | > 200 µg/mL | > 200 µg/mL | > 120 mg/kg | 48.4 mg/kg | > 120 mg/kg | 16.3 mg/kg | 
29 | CC(=O)NCC1CN(c2ccc(Cl)cc2)C(=O)O1 (centres unmarked) [Example 87] | 100 µg/mL (≈ 372 µM) | > 200 µg/mL | > 120 mg/kg | 42 mg/kg | > 120 mg/kg | 10.5 mg/kg | 
30 | CCCCCCN(CC1CN(c2ccc(S(C)(=O)=O)cc2)C(=O)O1)C(C)=O (racemic) [Example 122, (dl)-N-Hexyl-N-[3-[4-(methylsulfonyl)phenyl]-2-oxooxazolidin-5-ylmethyl]acetamide] | > 200 µg/mL | > 200 µg/mL | > 120 mg/kg | 48.4 mg/kg | > 120 mg/kg | 16.3 mg/kg | 
31 | CC(=O)NCC1CN(c2ccc(F)cc2)C(=O)O1 (centres unmarked) [Example 88] | > 200 µg/mL | > 200 µg/mL | > 120 mg/kg | 23.6 mg/kg | > 120 mg/kg | 21.9 mg/kg | 
